Measured values published in patent US5955520A, “Photochromic indeno-fused naphthopyrans” (PPG Industries, Inc., priority 1996, dated 1999).

Tests used:
[1] = photochromic response rates on an optical bench (test squares); assay type: physicochemical; conditions: for ΔOD @ Saturation: UV exposure continued for 20 minutes; for ΔOD @ Saturation / Sensitivity ΔOD/min: polymer test square, 75° F.; for Sensitivity ΔOD/min: first five (5) seconds of UV exposure, expressed per minute, 1.5 times 10^-3 molal; for Bleach Rate T 1/2: time for absorbance to reach one half the highest absorbance after removal of activating light, room temperature (75° F., 23.9° C.)
Method: (§1) Testing was done with the Example 1 and Comparative Example 1 photochromic naphthopyrans incorporated into polymeric samples by the following method. The quantity of naphthopyran calculated to yield a 1.5 times 10^-3 molal solution was added to a flask containing 50 grams of a monomer blend of 4 parts ethoxylated bisphenol A dimethacrylate (BPA 2EO DMA), 1 part poly(ethylene glycol) 600 dimethacrylate, and 0.033 weight percent 2,2'-azobis(2-methyl proprionitrile) (AIBN). The naphthopyran was dissolved into the monomer blend by stirring and gentle heating, if necessary. After a clear solution was obtained, it was poured into a flat sheet mold having the interior dimensions of 2.2 mm×6 inches (15.24 cm)×6 inches (15.24 cm). The mold was sealed and placed in a horizontal air flow, programmable oven set to increase the temperature from 40° C. to 95° C. over a 5 hour interval, hold the temperature at 95° C. for 3 hours and then lower it to 60° C., for at least 2 hours before the end of the curing cycle. After the mold was opened, the polymer sheet was cut using a diamond blade saw into 2 inch (5.1 centimeters) test squares.
The photochromic test squares of Part A were tested for photochromic response rates on an optical bench. Prior to testing on the optical bench, the photochromic test squares were exposed to 365 nanometer ultraviolet light for about 15 minutes to activate the photochromic compounds and then placed into a 76° C. oven for about 15 minutes to bleach the photochromic compounds. The test squares were then cooled to room temperature, exposed to fluorescent room lighting for at least 2 hours and then kept covered for at least 2 hours prior to testing on an optical bench maintained at 75° F. (23.90° C.).
The optical bench comprises a 150 watt Xenon arc lamp, a tungsten lamp, power supplies for both lamps, condensing lenses as needed to maintain collimated light beams from both lamps, a remote controlled shutter, a copper sulfate bath acting as a heat sink for the arc lamp, a Schott WG-320 nm cut-off filter which removes short wavelength radiation, neutral density filter(s), a sample holder in which the sample to be tested is inserted, a photopic filter, light detector, and radiometer assembly, a strip chart recorder, and a means for maintaining the alignment of the aforestated components during testing.
Change in optical density (Δ OD) of a sample was determined by inserting a photochromic test sample in the bleached state into the sample holder, adjusting the transmittance scale to 100%, opening the shutter from the Xenon lamp to provide ultraviolet radiation to change the sample from the bleached state to an activated (darkened) state, measuring the transmittance through the sample. The transmittance was measured by directing a beam of light from the tungsten lamp at a small angle normal to the surface of the sample, through the sample, and to a photopic filter, light detector and radiometer assembly. The photopic filter passes wavelengths such that the detector mimics the response of the human eye and produces output signals that are processed by the radiometer. The change in optical density was calculated according to the formula Δ OD=log(100/%Ta) where %Ta is the percent transmittance in the activated state and the logarithm is to the base 10.
The Δ OD/Min, which represents the sensitivity of the photochromic compound's response to UV light, was measured over the first five (5) seconds of UV exposure, then expressed on a per minute basis. The saturation optical density (OD) was taken under identical conditions as the Δ OD/Min, except UV exposure was continued for 20 minutes. The lambda max (Vis) is the wavelength in the visible spectrum at which the maximum absorption of the activated (colored) form of the photochromic compound in the test square occurs. […]

[2] = UV/Visible spectrophotometer test of photochromic test squares (lambda max, molal absorptivity); assay type: physicochemical; conditions: for λ max Vis (major) / λ max Vis (minor): activated (colored) form; for λ max Vis (major): major peak; for λ max Vis (major) / λ max Vis (minor) / Molal Absorpt. (ε) / λ max UV: test square; for λ max Vis (minor): minor peak; for Molal Absorpt. (ε): at λ max in the UV, ε=A/bm; for λ max UV: ultraviolet wavelength closest to the visible spectrum
Method: as §1
The photochromic test square polymerizates of Example 1 and Comparative Example 1 prepared in Part A were tested in a UV/Visible spectrophotometer to determine the lambda (λ) max (Vis) and the lambda max (UV) wavelengths. The lambda max (Vis) is the wavelength of the visible spectrum at which the maximum absorption of the activated (colored) form of the photochromic compound in a test square occurs. The lambda max (UV) is the wavelength of the ultraviolet range closest to the visible spectrum at which the absorption of the photochromic compound occurs.
The molal absorptivity or molal extinction coefficient (ε) reported in Table 2 is equal to the absorbance of the photochromic compound in a test square at the λ max in the UV (A) divided by the thickness of the test square in centimeters (b) multiplied by the concentration of the photochromic compound in the test square in moles per kilogram (m) according to the formula: ε=A/bm

[3] = in comparison to Comparative Example (CE) 1

SMILES | ΔOD @ Saturation [1] | Sensitivity ΔOD/min [1] | Bleach Rate T 1/2 [1] [min] | λ max Vis (major) [2] [nm] | λ max Vis (minor) [2] [nm] | Molal Absorpt. (ε) [2] | λ max UV [2] [nm] | bleach rate, i.e., fade rate (in words) [1] | sensitivity, i.e., coloration rate (in words) [1, 3] | Δ OD at saturation, i.e., activated intensity (in words) [1, 3] | molal absorptivity (ε) in the UV spectrum (in words) ([2]; in comparison to CE 1) | λ max UV and λ max Vis of the major peak (in words) ([2]; in comparison to CE 1, bathochromic shift)
COC(=O)c1c2c(c3ccccc3c1-c1ccccc1)OC(c1ccccc1)(c1ccccc1)C=C2 [CE 1, 2,2-diphenyl-5-methoxycarbonyl-6-phenyl-[2H]-naphtho[1,2-b]pyran, reference compound] | 0.68 | 0.19 ΔOD/min | 3.83 | 482 | 407 | 5709 | 346 | – | – | – | – | –
CCOC(=O)CC1(O)c2ccccc2-c2c1c1c(c3ccccc23)OC(c2ccccc2)(c2ccccc2)C=C1 (stereo not shown) [Example 1, 3,3-diphenyl-13-hydroxy-13-(2-oxo-2-ethoxyethyl)-1H-indeno[2,1-f]naphtho[1,2-b] pyran] | 1.0 | 0.34 ΔOD/min | 5.63 | 536 | 425 | 12,218 | 360 | acceptable bleach rate | greater sensitivity | higher Δ OD at saturation | higher molal absorptivity | higher λ max UV and λ max Vis of the major peak
